Key:
[1] = test system: PC3/PSC27 xenograft tumors; assay: PC3/PSC27 xenograft tumor terminal volume in NOD/SCID mice; type: in vivo; details: for tumor volume, drug used alone: chemotherapeutic drug alone; for tumor volume, drug administered together with PCC1: chemotherapeutic drug combined with PCC1, end of 8th week
Excerpt: Every two weeks was a dosing cycle, and MIT (mitoxantrone) was intraperitoneally administered to the mice on the first day of the 3rd/5th/7th weeks. From the first day of the 5th week, the mice were intraperitoneally administrated with PCC1, once a week. After the 8-week course of treatment, the mice were dissected for pathological identification and expression analysis.
Chemotherapeutic drug MIT alone or together with anti-senescence drug PCC1 was used to administer mice, and after the 8th week, the tumor size of each group was compared and analyzed.
All experimental mouse experiments were carried out in strict accordance with the relevant regulations of the Institutional Animal Care and Use Committee (IACUC), Shanghai Institutes for Biological Sciences, Chinese Academy of Sciences. Immunodeficient mice (NOD-SCID mice, ICR) (body weight about 25 g) aged 6-8 weeks were used for animal experiments related to the present patent. Stromal cells PSC27 and epithelial cells PC3 were mixed at a predetermined ratio of 1:4, and each graft contained 1.25×10^6 cells for tissue remodeling. The xenograft tumors were implanted into mice by subcutaneous transplantation, and the animals were euthanized 8 weeks after the end of the transplantation surgery. Tumor volume was calculated according to the following formula: V=(π/6)×[…] (V, volume; l, length; w, width).
(§1) In a preclinical treatment trial, subcutaneously transplanted mice were fed with a standard experimental diet, after 2 weeks chemotherapy drugs mitoxantrone (MIT, dose: 0.2 mg/kg) and/or procyanidin C1 (PCC1) (500 μl, dose: 10 mg/kg) via intraperitoneal administration. The time points were: the former was administrated on the first day of the 3rd, 5th and 7th weeks, and the latter was administrated on the first day of the 5th and 7th weeks. A total of 3 cycles of MIT administration were carried out throughout the course of treatment, and each cycle lasted for 2 weeks. After the course of treatment, mouse tumors were harvested for volume measurement and histological analysis. Each mouse cumulatively received 0.6 mg/kg body weight of MIT and […] body weight of PCC1. In order to cause systemic expression of SASP factor induced by chemotherapy, MIT was administered to mice through […] according to the above steps and sequence, but the dose was reduced to 0.1 mg/kg body weight/each time (the cumulative dose of MIT received in the whole course of treatment was 0.3 mg/kg body weight) to reduce drug-related toxicity. The chemotherapy experiment ended at the end of the 8th week, and the mice were dissected immediately after sacrifice, and the xenograft tumors were collected and used for pathological system analysis.

[2] = test system: cancer cells in the lesion; assay: DNA damage and apoptosis in tumor lesions (LCM, caspase 3 cleavage IHC); type: in vivo, mice; details: single agent vs placebo, 7 days after first PCC1 administration
Excerpt: The signals of Caspase 3 cleaved […] in the lesion of each group of mice were in sharp contrast. Scale bar, 200 μm.
To investigate mechanisms directly supporting this senescence-associated pattern with expression and reversal of SASP in MIT-administered mice, we dissected tumors in animals treated with both drugs 7 days after the first PCC1 administration, and the time point of 7 days after administration was selected mainly because drug-resistant clones had not yet formed in cancer cells in the lesion at this time. […] As supporting evidence, when PCC1 was applied during treatment, caspase 3 cleavage activity was increased, which was a typical hallmark of apoptosis (FIG. 29).

[3] = test system: SASP factors; assay: LCM and qRT-PCR of SASP factors in mouse lesions; type: in vivo, mice; details: MIT, mainly in stromal cells
Method: The stromal cells and cancer cells were specifically separated by LCM technology, total RNA was prepared and used for SASP expression detection. A P>0.05; *, P<0.05; **, P<0.01; ***, P<0.001.
as §1, with “The chemotherapy experiment ended at the end of the 8th week, and the mice were dissected immediately after sacrifice, and the xenograft tumors were collected and used for pathological system analysis.” left out

[4] = test system: senescent cells in tumor tissue; assay: SA-β-Gal staining of tumor tissue in PC3/PSC27 tumor-bearing mice; type: in vivo; details: MIT alone
Method: Representative pictures after SA-β-Gal staining. Scale bar, 100 μm.
A P>0.05; **, P<0.01; ***, P<0.001.
as §1, with “The chemotherapy experiment ended at the end of the 8th week, and the mice were dissected immediately after sacrifice, and the xenograft tumors were collected and used for pathological system analysis.” left out

[5] = test system: senescent primary human lung fibroblasts; details: cited from earlier work
[6] = test system: HUVECs; details: cited from earlier work
[7] = test system: senescent human preadipocytes; details: cited from earlier work
[8] = test system: IMR90 fetal lung fibroblast-like cell lines; details: culture-adapted; cited from earlier work
[9] = test system: senescent PSC27 cells; assay: Caspase 3/7 activity / drug-induced apoptosis in senescent cells; type: cell-based, human; details: QVD-OPh, 50 μM PCC1
Method: PSC27 cells gradually entered the senescent stage after being treated with BLEO for 12 hours under culture conditions. 50 μM PCC1 was added to the medium of senescent cells starting from day 7, NucLight Rapid Red reagent was used to label the cells, and caspase 3/7 reagent (IncuCyte) was used for apoptosis detection. Caspase 3/7 activity was detected every 4 hours (n=3).
Statistical differences are obtained by two-way ANOVA (Turkey' test).
PSC27 cells were plated in a 96-well dish, and the cells were induced to senescence under the treatment of 50 μg/mL BLEO. PCC1 and ABT263 were added at concentrations of 50 μM and 1.0 μM, respectively. Cell culture medium was supplemented with Incucyte Nuclight fast Red Reagent (Essen Bioscience) and Incucyte C-3/7 Apoptosis Reagent (Essen Bioscience). Representative field of view was selected to take pictures.

[10] = test system: PSC27 cells; assay: Bleomycin-induced senescence of PSC27 stromal cells (SA-β-Gal, BrdU, DDR foci staining); type: cell-based, human
Method: The primary normal human prostate stromal cell line PSC27 (obtained from Fred Hutchinson Cancer Research Center, USA) was cultured in an incubator at 37° C. and 5% CO2, and proliferated and passaged in PSCC complete culture medium.
To cause cell damage, 50 μg/mL bleomycin (BLEO) was added to the culture medium when PSC27 cells grew to 80% (abbreviated as […]). After 12 hours of drug treatment, the cells were simply washed 3 times with PBS, left in the culture medium for 7-10 days, and then the subsequent experiments were performed.
For immunofluorescent staining, target cells were preseeded on coverslips for at least 24 h after culture in dishes. After a brief wash, the cells were fixed with 4% paraformaldehyde in PBS for 8 min and blocked with 5% normal goat serum (NGS, Thermo Fisher) for 30 min. Mouse monoclonal antibody-anti-phospho-Histone H2A.X (Ser139) (clone JBW301, Millipore) and mouse monoclonal antibody-anti-BrdU (Cat# 347580, BD Biosciences), and secondary antibody Alexa Fluor® 488 (or 594)-Eurolink's F(ab')2 were sequentially added to the slides coated with the fixed cells. Nuclei were counterstained with 2 μg/m DAPI. The most representative image was selected from the three observation fields for data analysis and result display. FV1000 laser scanning confocal microscope (Olympus) was used to acquire confocal fluorescence images of cells.
Senescence-associated (3-galactosidase (SA-β-Gal) staining was performed following a previously reported procedure (Debacq-Chainiaux et al., 2009). Briefly, cells in culture dishes were washed with PBS and fixed at room temperature. Cells were fixed in 2% formaldehyde and 0.2% glutaraldehyde for 3 minutes. SA-β-Gal was used for staining with freshly prepared staining solution overnight at 37° C. Images were taken on the next day and the percentage of positive cells per unit area was calculated.

CC(=O)O[C@@]12CO[C@@H]1C[C@H](O)[C@@]1(C)C(=O)[C@H](O)C3=C(C)[C@@H](OC(=O)[C@H](O)[C@@H](NC(=O)OC(C)(C)C)c4ccccc4)C[C@@](O)([C@@H](OC(=O)c4ccccc4)[C@H]21)C3(C)C [DOC, docetaxel]
tumor volume, drug used alone ([1]; end of 8th week): could reduce the tumor volume | tumor volume, drug administered together with PCC1 [1]: no further tumor shrinkage

COc1cccc2c1C(=O)c1c(O)c3c(c(O)c1C2=O)C[C@@](O)(C(=O)CO)C[C@@H]3O[C@H]1C[C@H](N)[C@H](O)[C@H](C)O1 [DOX, doxorubicin]
tumor volume, drug administered together with PCC1 [1]: could roughly repeat the significant effect

O=C1c2c(O)ccc(O)c2C(=O)c2c(NCCNCCO)ccc(NCCNCCO)c21 [MIT, mitoxantrone, reference compound]
degree of DNA damage and apoptosis [2]: significant increase | expression of SASP factors (IL6, CXCL8, SPINK1, WNT16B, GM-CSF, MMP3, IL1α) and p16INK4A in lesions [3]: significantly elevated | reduction in tumor size compared to placebo ([1]; single agent, i.p., end of 8th week): 44.0% | senescent cells in tumor tissue [4]: induced the appearance of a large number of senescent cells

CC1(C)CCC(c2ccc(Cl)cc2)=C(CN2CCN(c3ccc(C(=O)NS(=O)(=O)c4ccc(N[C@H](CCN5CCOCC5)CSc5ccccc5)c(S(=O)(=O)C(F)(F)F)c4)cc3)CC2)C1 [Navitoclax]
ability to target senescent cells [5]: less effective | ability to target senescent cells [6]: able to target | ability to target senescent cells [7]: not | ability to target senescent cells [8]: can target and kill senescent cells

CC(C)[C@H](NC(=O)c1ccc2ccccc2n1)C(=O)N[C@@H](CC(=O)O)C(=O)COc1c(F)cccc1F [QVD, reference compound]
effect of pan-caspase inhibitor on senolytic activity of PCC1 [9]: could prevent the killing of senescent cells by PCC1

CC[C@]1(O)C[C@H]2CN(CCc3c([nH]c4ccccc34)[C@@](C(=O)OC)(c3cc4c(cc3OC)N(C=O)[C@H]3[C@@](O)(C(=O)OC)[C@H](OC(C)=O)[C@]5(CC)C=CCN6CC[C@]43[C@@H]65)C2)C1 [VIN, vincristine]
tumor volume, drug used alone ([1]; end of 8th week): could reduce the tumor volume | tumor volume, drug administered together with PCC1 [1]: no further tumor shrinkage

bleomycin
positive rate of SA-β-Gal staining ([10]; PSC27, 50 μg/mL BLEO 12 h, 7-10 days later, vs CTRL): significant increase | BrdU incorporation rate ([10]; PSC27, BLEO treated vs CTRL): greatly reduced | DNA damage repair foci (DDR foci) ([10]; PSC27, BLEO treated vs CTRL): significantly increased
